Data from PubChem BioAssay AID248 (DTP/NCI, 2004).
Several values for one entry are separate records, joined by “and”; a condition that tells them apart may be missing. Identical values can stand only once. Toxic doses and inconclusive results are not listed. No stated cut-off is given here; in the data, active means T/C of 150% or more; inactive means T/C below 125%.

Test system: L1210 leukemia ip in BDF1 mice, survival T/C
Test: NCI In Vivo Anticancer Drug Screen. Data for tumor model L1210 Leukemia (intraperitoneal) in B6D2F1 (BDF1) mice
Details: endpoint: mean survival time, higher = longer survival
Procedure, shortened: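 Mice bearing the transplanted tumor received compound or vehicle. Survival of the treated group was divided by that of the vehicle-treated control group to give the ratio.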

[1] = dose: 5.0 mg/kg/injection, schedule: Q01DX001 (ip), vehicle: saline
[2] = dose: 10.0 mg/kg/injection, schedule: Q01DX001 (ip), vehicle: saline
[3] = dose: 20.0 mg/kg/injection, schedule: Q01DX001 (ip), vehicle: saline
[4] = dose: 40.0 mg/kg/injection, schedule: Q01DX001 (ip), vehicle: saline
[5] = dose: 100.0 mg/kg/injection, schedule: Q04DX003 (ip), vehicle: Klucel (hydroxypropylcellulose) (HPC)
[6] = dose: 200.0 mg/kg/injection, schedule: Q04DX003 (ip), vehicle: Klucel (hydroxypropylcellulose) (HPC)
[7] = dose: 400.0 mg/kg/injection, schedule: Q04DX003 (ip), vehicle: Klucel (hydroxypropylcellulose) (HPC)
[8] = dose: 100.0 mg/kg/injection, schedule: Q01DX001 (ip), vehicle: saline
[9] = dose: 200.0 mg/kg/injection, schedule: Q01DX001 (ip), vehicle: saline
[10] = dose: 400.0 mg/kg/injection, schedule: Q01DX001 (ip), vehicle: saline
[11] = dose: 100.0 mg/kg/injection, schedule: Q04DX002 (ip), vehicle: Klucel (hydroxypropylcellulose) (HPC)
[12] = dose: 200.0 mg/kg/injection, schedule: Q04DX002 (ip), vehicle: Klucel (hydroxypropylcellulose) (HPC)
[13] = dose: 400.0 mg/kg/injection, schedule: Q04DX002 (ip), vehicle: Klucel (hydroxypropylcellulose) (HPC)
[14] = dose: 100.0 mg/kg/injection, schedule: Q01DX009 (ip), vehicle: saline
[15] = dose: 200.0 mg/kg/injection, schedule: Q01DX009 (ip), vehicle: saline
[16] = dose: 400.0 mg/kg/injection, schedule: Q01DX009 (ip), vehicle: saline

Measured: T/C

CC(C)(C)NC/C(=C\c1ccccc1)C(=O)c1ccccc1
inactive: [1] 98 % of control | [2] 101 % of control | [3] 98 % of control | dose: 25.0 mg/kg/injection, schedule: Q01DX009 (ip), vehicle: Klucel (hydroxypropylcellulose) (HPC) 100 % of control | [4] 93 % of control | dose: 50.0 mg/kg/injection, schedule: Q01DX009 (ip), vehicle: Klucel (hydroxypropylcellulose) (HPC) 98 % of control | dose: 80.0 mg/kg/injection, schedule: Q01DX001 (ip), vehicle: saline 95 % of control | dose: 100.0 mg/kg/injection, schedule: Q01DX009 (ip), vehicle: Klucel (hydroxypropylcellulose) (HPC) 95 % of control | [5] 94 % of control | dose: 100.0 mg/kg/injection, schedule: Q04DX003 (ip), vehicle: saline with Tween-80 112 % of control | [6] 91 % of control | [7] 96 % of control

CCOC(=O)N1C(c2ccccc2)N(c2ccccc2)C(c2ccccc2)N1C(=O)OCC (configuration not stated)
inactive: dose: 50.0 mg/kg/injection, schedule: Q01DX001 (ip), vehicle: saline 108 % of control | [8] 103 % of control | [9] 108 % of control | [10] 103 % of control

O=C1C=C(c2ccccc2)C(c2ccccc2)C1=O (configuration not stated)
inactive: dose: 50.0 mg/kg/injection, schedule: Q04DX002 (ip), vehicle: Klucel (hydroxypropylcellulose) (HPC) 106 % of control | [11] 98 % of control | [12] 95 % of control and 111 % of control | [13] 93 % of control

CC(=O)Nc1ccc2c3c(ccc([N+](=O)[O-])c13)CC2
inactive: [14] 90 % of control | dose: 100.0 mg/kg/injection, schedule: Q04DX003 (ip), vehicle: saline 108 % of control | [15] 93 % of control | dose: 200.0 mg/kg/injection, schedule: Q04DX003 (ip), vehicle: saline 110 % of control | [16] 108 % of control | dose: 400.0 mg/kg/injection, schedule: Q04DX003 (ip), vehicle: saline 110 % of control

O=C(O)c1ccc([N+](=O)[O-])cc1-n1cccc1
inactive: [5] 95 % of control | [6] 98 % of control | [7] 88 % of control

CCCCCCCCCCCCCCCCN1CCN(CCCCCCCCCCCCCCCC)CC1
inactive: [11] 108 % of control | [12] 101 % of control | [13] 101 % of control

N=C(N)c1cccc(CCCCc2ccc(N)cc2)c1
inactive: [5] 94 % of control | [6] 99 % of control

CN(CCCN1C(=O)c2ccccc2C1=O)c1ccc(N=O)cc1
inactive: dose: 25.0 mg/kg/injection, schedule: Q01DX001 (ip), vehicle: Klucel (hydroxypropylcellulose) (HPC) 101 % of control | dose: 50.0 mg/kg/injection, schedule: Q01DX001 (ip), vehicle: Klucel (hydroxypropylcellulose) (HPC) 95 % of control | dose: 100.0 mg/kg/injection, schedule: Q01DX001 (ip), vehicle: Klucel (hydroxypropylcellulose) (HPC) 92 % of control and 91 % of control

NNc1cc(S(=O)(=O)O)cc(C(=O)O)c1O
inactive: [8] 107 % of control | [14] 100 % of control and 103 % of control | dose: 100.0 mg/kg/injection, schedule: Q04DX002 (ip), vehicle: saline 97 % of control and 90 % of control | [9] 102 % of control | [15] 110 % of control and 89 % of control | dose: 200.0 mg/kg/injection, schedule: Q04DX002 (ip), vehicle: saline 100 % of control and 90 % of control | [10] 102 % of control | [16] 87 % of control | dose: 400.0 mg/kg/injection, schedule: Q04DX002 (ip), vehicle: saline 108 % of control and 90 % of control

N#CSCC(=O)OC1CCCCC1
inactive: [1] 98 % of control | [2] 96 % of control | [3] 96 % of control | [4] 93 % of control

CN(C)C=NC1(c2ccccc2)CCCCC1
inactive: dose: 25.0 mg/kg/injection, schedule: Q01DX009 (ip), vehicle: saline with Tween-80 96 % of control | dose: 50.0 mg/kg/injection, schedule: Q01DX009 (ip), vehicle: saline with Tween-80 96 % of control
